Measurements taken from patent US10738062B2, “Chromane-substituted tetracyclic compounds and uses thereof for the treatment of viral diseases” (Merck Sharp & Dohme Corp., priority 2016, dated 2020).

Key:
Parameters in all cases: species or system Hepatitis C virus
HCV replicon 1A = experiment: Cell-based HCV replicon assay (Replicon Assay A), replicon 1A; conditions: replicon RNA by real time PCR, day 3
Method in brief: (§1)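 Replicon cells were seeded at 2000/well with compound, 10 serial dilutions starting at 333.3 nM to 1.667 nM, in 0.5% DMSO and 5% FBS, then harvested on day 3. Replicon RNA was measured by multiplex TaqMan RT-PCR with cyclophilin as endogenous control. EC50 is the concentration raising Ct by 1 over projected baseline.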

HCV replicon 1B = experiment: Cell-based HCV replicon assay (Replicon Assay B), replicon 1B; conditions: replicon RNA by real-time PCR, 3 days
Protocol: In an alternate assay (“Replicon Assay B”), 1000 cells were seeded per well in a 384-well collagen coated black plate from Greiner bio-one (Cat #781946) in 5% FBS. Inhibitors of this invention were added at 24 h post-seeding, and the plates were incubated for 3 days. Cells were subsequently lysed with Qiagen lysis buffer (Cat #1062731) to extract the RNA. HCV replicon RNA level was measured by real-time PCR using the RNA-to-CT kit from Applied Biosystem (Cat #4392656) and genotype-specific primers and probes. The amplicon was located within NS5B. […] (SEQ. ID NO. 2); the probe sequence was FAM-labeled […] (SEQ. ID NO. 3).
The real-time RT-PCR reactions were run on ABI PRISM 7900HT or Viia7 Sequence Detection System using the following program: 48° C. for 30 minutes, 95° C. for 10 minutes, 40 cycles of 95° C. for 15 sec, 60° C. for 1 minutes.
EC50 data for replicons 1A, 1AY93H and 2B were obtained using Replicon Assay A and EC50 data for replicon 1B was obtained using Replicon Assay B.

HCV replicon 2B = experiment: Cell-based HCV replicon assay (Replicon Assay A), replicon 2B; conditions: read-out: EC50 replicon 2B; Replicon Assay A; replicon RNA by real time PCR, day 3
Method in brief: as §1

HCV replicon 1A Y93H = experiment: Cell-based HCV replicon assay (Replicon Assay A), replicon 1AY93H; conditions: read-out: EC50 replicon 1A Y93H; Replicon Assay A; replicon RNA by real time PCR, day 3
Method in brief: as §1

## COC(=O)NC(C(=O)N1CCC[C@H]1c1ncc(-c2cc(F)c3c(c2)OC(c2ccc4c(c2)OCCC4)n2c-3cc3cc(-c4cnc([C@@H]5CCCN5C(=O)[C@@H](NC(=O)OC)C5CCOCC5)[nH]4)ccc32)[nH]1)C(C)(C)F (single isomer, unassigned) [Compound 87]
HCV replicon 1A
  EC50: 2.3 pM
HCV replicon 1B; Hepatitis C virus, 72 h
  EC50: 3.4 pM
HCV replicon 2B
  EC50: 0.133 nM
HCV replicon 1A Y93H
  EC50: 0.528 nM

## COC(=O)NC(C(=O)N1CCC[C@H]1c1ncc(-c2cc(F)c3c(c2)OC(c2ccc4c(c2)OCCC4)n2c-3cc3cc(-c4cnc([C@@H]5CCCN5C(=O)[C@@H](NC(=O)OC)C5CCOCC5)[nH]4)ccc32)[nH]1)C(C)(C)F (single isomer, unassigned) [Compound 88]
HCV replicon 1A
  EC50: 14.9 pM
HCV replicon 1B
  EC50: 2.6 pM
HCV replicon 2B
  EC50: 3.11 nM
HCV replicon 1A Y93H
  EC50: 9.93 nM

## COC(=O)NC(C(=O)N1CCC[C@H]1c1ncc(-c2cc(F)c3c(c2)OC(c2ccc4c(c2)OCCC4)n2c-3cc3cc(-c4cnc([C@@H]5CCCN5C(=O)[C@@H](NC(=O)OC)C5CCOCC5)[nH]4)ccc32)[nH]1)C(C)(C)F (single isomer, unassigned) [Compound 89]
HCV replicon 1A
  EC50: 2.1 pM
HCV replicon 1B
  EC50: 3.1 pM
HCV replicon 2B
  EC50: 0.015 nM
HCV replicon 1A Y93H
  EC50: 0.017 nM

## COC(=O)NC(C(=O)N1CCC[C@H]1c1ncc(-c2cc(F)c3c(c2)OC(c2ccc4c(c2)OCCC4)n2c-3cc3cc(-c4cnc([C@@H]5CCCN5C(=O)[C@@H](NC(=O)OC)C5CCOCC5)[nH]4)ccc32)[nH]1)C(C)(C)F (single isomer, unassigned) [Compound 90]
HCV replicon 1A
  EC50: 1.7 pM
HCV replicon 1B
  EC50: 3.2 pM
HCV replicon 2B
  EC50: 0.157 nM
HCV replicon 1A Y93H
  EC50: 0.047 nM

## COC(=O)N[C@H](C(=O)N1CCC[C@H]1c1ncc(-c2cc(F)c3c(c2)OC(c2ccc4c(c2)OCCC4)n2c-3c(F)c3cc(-c4cnc([C@@H]5CCCN5C(=O)[C@@H](NC(=O)OC)C5CCOCC5)[nH]4)ccc32)[nH]1)C(C)C (single isomer, unassigned) [Compound 92]
HCV replicon 1A
  EC50: 1.5 pM
HCV replicon 1B; Hepatitis C virus, 72 h
  EC50: 2.4 pM
HCV replicon 2B
  EC50: 0.006 nM
HCV replicon 1A Y93H
  EC50: 0.006 nM

## COC(=O)NC(C(=O)N1CCC[C@H]1c1ncc(-c2ccc3c(c2)cc2n3C(c3ccc4c(c3)OCCC4)Oc3cc(-c4cnc([C@@H]5CCCN5C(=O)[C@@H](NC(=O)OC)C(C)C)[nH]4)cc(F)c3-2)[nH]1)C1CCO[C@H](C)C1 (single isomer, unassigned) [Compound 93]
HCV replicon 1A; Hepatitis C virus, 72 h
  EC50: 1.7 pM
HCV replicon 1B; Hepatitis C virus, 72 h
  EC50: 2.1 pM
HCV replicon 2B
  EC50: 0.112 nM
HCV replicon 1A Y93H
  EC50: 0.671 nM

## COC(=O)NC(C(=O)N1CCC[C@H]1c1ncc(-c2ccc3c(c2)cc2n3C(c3ccc4c(c3)OCCC4)Oc3cc(-c4cnc([C@@H]5CCCN5C(=O)[C@@H](NC(=O)OC)C(C)C)[nH]4)cc(F)c3-2)[nH]1)C1CCO[C@H](C)C1 (single isomer, unassigned) [Compound 94]
HCV replicon 1A
  EC50: 2.3 pM
HCV replicon 1B
  EC50: 3.3 pM
HCV replicon 2B
  EC50: 0.004 nM
HCV replicon 1A Y93H
  EC50: 0.006 nM
